Results on one compound are retold here after BindingDB's records for patent US20240182453 (Boehringer Ingelheim International, 2024).

The assay concerns the target Metabotropic glutamate receptor 4 (Homo sapiens, UniProt Q14833). Nature of the assay: In Vitro Testing of mGluR4 Potency. Here is the method:
The in vitro activity of the compounds according to the invention may be investigated as follows:[0111]The HEK293 cell overexpressing the human metabotropic Glutamate 4 receptor are thawed at 37 C. and immediately diluted with cell culture medium. After centrifugation, the cell pellet is re-suspended in medium and then distributed from a stirred spinner flask into the wells of the assay plate. The plates are incubated for one hour at room temperature before they are incubated for 24 hours at 37 C./5% CO2. After washing the cells in the plate three times with 80 uL HBSS/HEPES buffer (10 uL buffer remained in the wells after washing), 5 uL per well of compounds diluted in HBSS/HEPES buffer containing 0.2% BSA (final concentration: 0.1%) and 1 mM IBMX (final concentration: 0.5 mM) are added to the wells of the assay plate. Thereafter 5 uL per well of L-Glutamic acid (final concentration: 10 uM), forskolin (final concentration: 1 uM) and 1 mM IBMX (final concentration: 0.5 mM) dissolved in HBSS/HEPES buffer containing 0.2% BSA (final concentration: 0.1%) are added to the assay plate (final DMSO concentration: 1%). […] The emission at 615 nm and 665 nm (Excitation wavelength: 320 nm) are measured on the EnVision reader (Perkin Elmer). The ratio between the emission at 665 nm and 615 is calculated by the reader. […]

Chain of Metabotropic glutamate receptor 4 (Q14833 whole entry): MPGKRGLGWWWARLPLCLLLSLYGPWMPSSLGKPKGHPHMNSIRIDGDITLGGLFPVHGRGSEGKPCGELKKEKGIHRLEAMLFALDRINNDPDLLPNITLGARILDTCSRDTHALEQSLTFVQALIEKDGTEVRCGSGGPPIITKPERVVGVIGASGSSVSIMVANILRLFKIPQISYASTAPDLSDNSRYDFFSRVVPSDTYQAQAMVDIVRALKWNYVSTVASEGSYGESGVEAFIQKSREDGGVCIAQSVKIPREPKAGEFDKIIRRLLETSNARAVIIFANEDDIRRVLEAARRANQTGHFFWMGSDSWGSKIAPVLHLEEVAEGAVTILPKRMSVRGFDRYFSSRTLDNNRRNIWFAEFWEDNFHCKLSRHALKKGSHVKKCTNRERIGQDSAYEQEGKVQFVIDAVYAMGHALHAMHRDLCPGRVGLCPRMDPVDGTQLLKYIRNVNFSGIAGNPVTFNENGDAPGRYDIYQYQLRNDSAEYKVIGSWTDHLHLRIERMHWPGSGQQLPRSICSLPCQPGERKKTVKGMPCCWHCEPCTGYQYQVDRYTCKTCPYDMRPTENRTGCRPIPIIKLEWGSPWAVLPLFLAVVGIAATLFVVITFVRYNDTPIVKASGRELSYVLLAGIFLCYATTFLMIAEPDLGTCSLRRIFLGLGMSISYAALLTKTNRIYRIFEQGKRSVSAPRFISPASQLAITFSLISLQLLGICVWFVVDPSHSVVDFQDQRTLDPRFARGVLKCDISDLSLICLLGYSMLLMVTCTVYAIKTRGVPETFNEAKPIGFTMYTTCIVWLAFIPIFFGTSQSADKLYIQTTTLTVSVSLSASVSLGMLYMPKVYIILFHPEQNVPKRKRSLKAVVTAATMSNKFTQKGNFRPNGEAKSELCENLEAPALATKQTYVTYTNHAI

Take `Cc1cnc(C(=O)N[C@H](c2nc3cc(F)c(F)cc3n2C)C2CC2)cn1` [US20240182453, Example 66]: inhibition was half-maximal at 23 nM (IC50).
